Data as given in patent publication US20080255177A1, “ANTI-TUMOR ACTIVITY OF CCI-779 IN PAPILLARY RENAL CELL CANCER” (Wyeth, priority 2007, published 2008).
Several values for one entry are separate records, joined by “and”; a condition that tells them apart may be missing. Identical values can stand only once.

System: advanced metastatic renal cell carcinoma
Assay: Phase III study of CCI-779 (temsirolimus) vs αIFN as first-line therapy
Assay type: in vivo
Conditions: for OS median: first-line, αIFN 3 MU escalating to 18 MU s.c. 3 times/week or CCI-779 25 mg i.v. weekly
Description: In this phase III study, 626 advanced metastatic renal cell carcinoma patients from 26 countries were randomized to αIFN or CCI-779 (temsirolimus) as first-line therapy. This group is a very poor prognosis group of patients with many risk factors for early death. Patients received 3 million units (MU) of αIFN-alone subcutaneously 3 times/week, escalating to 18 MU or 25-mg CCI-779 intravenous infusion weekly.
Eligibility for this study required histologically confirmed, advanced (stage IV or recurrent disease) RCC with no prior systemic therapy for the disease. Subjects with central nervous system metastases, prior anticancer therapy for RCC and prior investigational therapy/agents within 4 weeks of randomization were excluded from the study.
The primary objective of this study was efficacy with a primary endpoint of overall survival. Secondary objectives of this study were safety, health outcomes, and additional efficacy endpoints. The secondary efficacy endpoints of this study were an evaluation of progression-free survival, response rate (complete and partial responses), clinical benefit rate, the duration of overall response, time to treatment failure, and health outcomes measurements. In addition, subject responses across all 3 treatment arms were evaluated based on screening tumor expression of proteins involved in the AKT-mTOR pathway. Other planned and post-hoc analyses were performed to assess influence of tumor histology (clear cell vs. non-clear cell), age (vs. >/=), and prognostic-risk groups (intermediate vs. poor).

[1] = patients <65yo, previously untreated advRCC, vs. αIFN
[2] = patients with clear-cell tumor histology
[3] = patients with other (non clear-cell) tumor histology
[4] = previously untreated clear-cell advRCC, vs. αIFN
[5] = previously untreated non clear-cell advRCC, TEMSR alone vs. αIFN

CO[C@H]1C[C@@H]2CC[C@@H](C)[C@@](O)(O2)C(=O)C(=O)N2CCCC[C@H]2C(=O)O[C@H]([C@H](C)C[C@@H]2CC[C@@H](OC(=O)C(C)(CO)CO)[C@H](OC)C2)CC(=O)[C@H](C)/C=C(\C)[C@@H](O)[C@@H](OC)C(=O)[C@H](C)C[C@H](C)/C=C/C=C/C=C/1C [TEMSR, rapamycin 42-ester with 3-hydroxy-2-(hydroxymethyl)-2-methylpropionic acid]
OS hazard ratio, TEMSR vs. αIFN (patients <65 years old): 0.62 and 0.61
PFS hazard ratio, TEMSR vs. αIFN (patients <65 years old): 0.61 and 0.62
OS improved by [1]: 64%
PFS prolonged by [1]: 61%
reduction in risk of death [1]: 39%
risk of death or disease progression reduced by [1]: 38%
difference in OS or PFS, TEMSR or αIFN (patients >/=65 years old): no difference
OS HR, TEMSR:IFN [2]: 0.82
PFS HR, TEMSR:IFN [2]: 0.76
PFS median [2]: 5.5 mo
OS median [2]: 10.7 mo
OS HR, TEMSR:IFN [3]: 0.49
PFS HR, TEMSR:IFN [3]: 0.38
PFS median [3]: 7.0 mo
OS median [3]: 11.6 mo
OS improved by [4]: 22%
PFS prolonged by [4]: 31%
reduction in risk of death [4]: 18%
risk of death or disease progression reduced by [4]: 24%
OS improved by [5]: 104%
PFS prolonged by [5]: 163%
reduction in risk of death [5]: 51%
risk of death or disease progression reduced by [5]: 62%
side effect profile vs. αIFN (stated for patients >/=65 years old): better side effect profile than αIFN
